Experimental data from PubChem BioAssay (NCI).
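Assay format: 96-well plates, 48-hour exposure. GI50 is the concentration that inhibits growth by half. Definition used: TGI = concentration required for complete inhibition of growth.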

What was measured:
Assay in all cases: NCI-60 cell line screen, 48 h
U251 CNS = tested on: U251 CNS
IGROV1 ovarian = tested on: IGROV1 ovarian
EKVX NSCLC = tested on: EKVX NSCLC
LOX IMVI melanoma = tested on: LOX IMVI melanoma
SF-295 CNS = tested on: SF-295 CNS
HCT-116 colon = tested on: HCT-116 colon
HT29 colon = tested on: HT29 colon
CAKI-1 renal = tested on: CAKI-1 renal
RXF 393 renal = tested on: RXF 393 renal
HS 578T breast = tested on: HS 578T breast

| SMILES | TGI (U251 CNS) | TGI (IGROV1 ovarian) | TGI (EKVX NSCLC) | TGI (LOX IMVI melanoma) | TGI (SF-295 CNS) | TGI (HCT-116 colon) | TGI (HT29 colon) | TGI (CAKI-1 renal) | TGI (RXF 393 renal) | GI50 (U251 CNS) | GI50 (IGROV1 ovarian) | GI50 (EKVX NSCLC) | GI50 (SF-295 CNS) | GI50 (HCT-116 colon) | GI50 (HT29 colon) | GI50 (HS 578T breast) | TGI (HS 578T breast) | GI50 (CAKI-1 renal) | GI50 (RXF 393 renal) | GI50 (LOX IMVI melanoma) |
| --- | --- | --- | --- | --- | --- | --- | --- | --- | --- | --- | --- | --- | --- | --- | --- | --- | --- | --- | --- | --- |
| Oc1ccc(Br)cc1C=Nc1ccc(N=Cc2cc(Br)ccc2O)cc1 | > 100 µM | > 100 µM | > 100 µM | > 100 µM | > 100 µM | > 100 µM | > 100 µM | > 100 µM | > 100 µM | – | – | – | – | – | – | – | – | – | – | – |
| COc1cc(C(=O)N2CCc3c([nH]c4c([N+](=O)[O-])c(OC)ccc34)C2C)cc(OC)c1OC (configuration not stated) | > 100 µM | 22.3 µM | > 100 µM | > 100 µM | > 100 µM | > 100 µM | > 100 µM | > 100 µM | 91.2 µM | – | – | – | – | – | – | – | – | – | – | – |
| CC(=O)OCCOCNC(=S)N/N=C/c1ccc(Br)s1 | > 100 µM | > 100 µM | > 100 µM | > 100 µM | > 100 µM | > 100 µM | > 100 µM | – | > 100 µM | – | – | – | – | – | – | – | – | – | – | – |
| CC1=C(C(=O)NNS(=O)(=O)c2ccc(C)cc2)CC(C(=O)NNS(=O)(=O)c2ccc(C)cc2)=C(C)N1 | > 100 µM | > 100 µM | > 100 µM | > 100 µM | > 100 µM | > 100 µM | > 100 µM | > 100 µM | > 100 µM | – | – | – | – | – | – | – | – | – | – | – |
| Cc1cccc(N=C2NC(=O)C(CC(=O)Nc3cccc(C)c3C)S2)c1 (configuration not stated) | > 100 µM | > 100 µM | > 100 µM | > 100 µM | > 100 µM | > 100 µM | > 100 µM | – | > 100 µM | – | – | – | – | – | – | – | – | – | – | – |
| COc1ccc2c3c(Nc4ccc(/C(C)=N/O)cc4)[nH]c4ccccc4c-3c(N=O)c2c1 | 12.9 µM | 29.2 µM | 20.4 µM | – | 38.9 µM | 2.89 µM | 33.7 µM | 6.01 µM | 0.0372 µM | 2.31 µM | 15 µM | 3.74 µM | 9.11 µM | 1.47 µM | 19.6 µM | 7.04 µM | 37 µM | 2.65 µM | – | – |
| C=CCn1c2c(sc1=S)C(S)N=CN2 (configuration not stated) | > 100 µM | > 100 µM | > 100 µM | > 100 µM | > 100 µM | > 100 µM | > 100 µM | > 100 µM | > 100 µM | – | – | – | – | – | – | – | – | – | – | – |
| C[C@]12CC[C@@H]3c4ccc(O)c([N+](=O)[O-])c4CC[C@H]3[C@@H]1CC[C@@H]2NS(=O)(=O)c1cccc(Br)c1 | 4.28 µM | 9.35 µM | – | – | 3.13 µM | 4.17 µM | 3.92 µM | 5.43 µM | 4.21 µM | 1.9 µM | 3.22 µM | – | 1.68 µM | 1.92 µM | 1.94 µM | 2.23 µM | 6 µM | 2.36 µM | 2.03 µM | – |
| OCC(O)CNc1ccnc2cc(Cl)ccc12 (configuration not stated) | > 100 µM | > 100 µM | > 100 µM | > 100 µM | > 100 µM | > 100 µM | > 100 µM | > 100 µM | > 100 µM | – | – | – | – | – | – | – | – | – | – | – |
| [F][Sn]([F])([c]1ccccc1)[c]1ccccc1 | 3.05 µM | 4 µM | 3.96 µM | 3.29 µM | 3.85 µM | 3.26 µM | 3.85 µM | 3.22 µM | 2.64 µM | 1.63 µM | 1.84 µM | 1.83 µM | 1.99 µM | 1.5 µM | 1.78 µM | – | – | 1.32 µM | 0.887 µM | 1.7 µM |
| CCOc1ccccc1NC(=O)C(=O)Cc1nc2ccccc2s1 | > 100 µM | > 100 µM | > 100 µM | – | > 100 µM | > 100 µM | > 100 µM | > 100 µM | > 100 µM | – | – | – | – | – | – | – | – | – | – | – |
| O=C(O)CN(c1ccccc1)S(=O)(=O)c1ccc([N+](=O)[O-])cc1 | > 100 µM | > 100 µM | > 100 µM | > 100 µM | > 100 µM | – | > 100 µM | > 100 µM | > 100 µM | – | – | – | – | – | – | – | – | – | – | – |
| Cc1cccc(C(C)C)c1NC(=O)C(=O)C(C(=O)c1ccccc1F)C1OC(=O)c2ccccc21 (configuration not stated) | 37.3 µM | 77.9 µM | 96.6 µM | 32.7 µM | – | 27.5 µM | 71.7 µM | 70.5 µM | 27.5 µM | – | – | – | – | – | – | – | – | – | – | – |
| N#CC(C(=O)CCC(=O)Nc1cccc(C(F)(F)F)c1)c1ccc(Cl)cc1 (configuration not stated) | > 100 µM | > 100 µM | > 100 µM | > 100 µM | > 100 µM | > 100 µM | > 100 µM | > 100 µM | – | – | – | – | – | – | – | – | – | – | – | – |
| COc1cc(C2C(C(=O)Nc3cc(F)c(F)cc3F)=C(C)NC(C)=C2C(=O)Nc2cc(F)c(F)cc2F)ccc1O | > 100 µM | > 100 µM | 73.9 µM | 32.9 µM | 55.3 µM | – | > 100 µM | 42.8 µM | 52.2 µM | – | – | – | – | – | – | – | – | – | – | – |
| CC(=O)OC1C2CCC1C1C2C2(Cl)C(Cl)=C(Cl)C1(Cl)C2(Cl)Cl (configuration not stated) | 26.2 µM | 36 µM | 24.1 µM | 29.1 µM | 23.7 µM | 27.8 µM | 28 µM | 27 µM | 29.3 µM | – | – | – | – | – | – | – | – | – | – | – |
| CC1=C(c2cc(C(=O)Nc3ccc(Cl)cc3)nc(=S)[nH]2)Sc2ccccc2N1 | > 100 µM | > 100 µM | > 100 µM | > 100 µM | > 100 µM | > 100 µM | > 100 µM | > 100 µM | > 100 µM | – | – | – | – | – | – | – | – | – | – | – |
| COC(=O)/C(=C\c1ccc(N(CCC#N)CCC#N)cc1)NC(=O)c1cc([N+](=O)[O-])ccc1Cl | > 100 µM | > 100 µM | > 100 µM | > 100 µM | > 100 µM | > 100 µM | > 100 µM | > 100 µM | > 100 µM | – | – | – | – | – | – | – | – | – | – | – |
| Cc1cccc(C)c1NC(=O)C(=O)CC(=O)c1cccc([N+](=O)[O-])c1 | > 100 µM | > 100 µM | > 100 µM | – | > 100 µM | > 100 µM | > 100 µM | > 100 µM | – | – | – | – | – | – | – | – | – | – | – | – |
| O=c1nc(-c2ccccc2)cc(-c2ccccc2O)[nH]1 | > 100 µM | > 100 µM | > 100 µM | > 100 µM | > 100 µM | > 100 µM | > 100 µM | > 100 µM | > 100 µM | – | – | – | – | – | – | – | – | – | – | – |
| CC(C)(C)OC(=O)N1N=NC2C1C1CC(OCc3ccccc3)(OCc3ccccc3)C2O1 (configuration not stated) | > 100 µM | > 100 µM | – | 33.7 µM | > 100 µM | – | > 100 µM | > 100 µM | > 100 µM | – | – | – | – | – | – | – | – | – | – | – |
